# Test system: 556581-035-R-J1-PDC complex spheroid viability
# Experiment: Anticancer human tumor 556581-035-R-J1-PDC patient-derived ovarian carcinoma cell line growth inhibition
# Conditions: for IC50: curve of first compound; for viability, T/C: stronger effect = lower value
# Procedure, shortened: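 Drug combinations with the LSD1 inhibitor iadademstat tested on tumor cells co-cultured as spheroids with endothelial cells and mesenchymal stem cells. Concentrations descended in half-log increments from clinical Cmax or 10 microM.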
# [1] = second compound 0.1 µM, first compound 0.0316 µM
# [2] = second compound 0.1 µM, first compound 0.1 µM
# [3] = second compound 0.1 µM, first compound 0.316 µM
# [4] = second compound 0.1 µM, first compound 1 µM
# [5] = second compound 0.316 µM, first compound 0.0316 µM
# [6] = second compound 0.316 µM, first compound 0.1 µM
# [7] = second compound 0.316 µM, first compound 0.316 µM
# [8] = second compound 0.316 µM, first compound 1 µM
# [9] = second compound 1 µM, first compound 0.0316 µM
# [10] = second compound 1 µM, first compound 0.1 µM
# [11] = second compound 1 µM, first compound 0.316 µM
# [12] = second compound 1 µM, first compound 1 µM
# [13] = second compound 3.16 µM, first compound 0.0316 µM
# [14] = second compound 3.16 µM, first compound 0.1 µM
# [15] = second compound 3.16 µM, first compound 0.316 µM
# [16] = second compound 3.16 µM, first compound 1 µM
# [17] = second compound 10 µM, first compound 0.0316 µM
# [18] = second compound 10 µM, first compound 0.1 µM
# [19] = second compound 10 µM, first compound 0.316 µM
# [20] = second compound 10 µM, first compound 1 µM
# [21] = second compound 0.1 µM, first compound 0.00949 µM
# [22] = second compound 0.1 µM, first compound 0.03 µM
# [23] = second compound 0.1 µM, first compound 0.0949 µM
# [24] = second compound 0.1 µM, first compound 0.3 µM
# [25] = second compound 0.1 µM, first compound 0.949 µM
# [26] = second compound 0.1 µM, first compound 3 µM
# [27] = second compound 0.316 µM, first compound 0.00949 µM
# [28] = second compound 0.316 µM, first compound 0.03 µM
# [29] = second compound 0.316 µM, first compound 0.0949 µM
# [30] = second compound 0.316 µM, first compound 0.3 µM
# [31] = second compound 0.316 µM, first compound 0.949 µM
# [32] = second compound 0.316 µM, first compound 3 µM
# [33] = second compound 1 µM, first compound 0.00949 µM
# [34] = second compound 1 µM, first compound 0.03 µM
# [35] = second compound 1 µM, first compound 0.0949 µM
# [36] = second compound 1 µM, first compound 0.3 µM
# [37] = second compound 1 µM, first compound 0.949 µM
# [38] = second compound 1 µM, first compound 3 µM
# [39] = second compound 3.16 µM, first compound 0.00949 µM
# [40] = second compound 3.16 µM, first compound 0.03 µM
# [41] = second compound 3.16 µM, first compound 0.0949 µM
# [42] = second compound 3.16 µM, first compound 0.3 µM
# [43] = second compound 3.16 µM, first compound 0.949 µM
# [44] = second compound 3.16 µM, first compound 3 µM
# [45] = second compound 10 µM, first compound 0.00949 µM
# [46] = second compound 10 µM, first compound 0.03 µM
# [47] = second compound 10 µM, first compound 0.0949 µM
# [48] = second compound 10 µM, first compound 0.3 µM
# [49] = second compound 10 µM, first compound 0.949 µM
# [50] = second compound 10 µM, first compound 3 µM
# [51] = second compound 0.1 µM, first compound 0.00316 µM
# [52] = second compound 0.1 µM, first compound 0.01 µM
# [53] = second compound 0.316 µM, first compound 0.00316 µM
# [54] = second compound 0.316 µM, first compound 0.01 µM
# [55] = second compound 1 µM, first compound 0.00316 µM
# [56] = second compound 1 µM, first compound 0.01 µM
# [57] = second compound 3.16 µM, first compound 0.00316 µM
# [58] = second compound 3.16 µM, first compound 0.01 µM
# [59] = second compound 10 µM, first compound 0.00316 µM
# [60] = second compound 10 µM, first compound 0.01 µM
# 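Further: spheroids exposed to agents for seven days.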
# 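Wherever viability, T/C is given: 100% = DMSO vehicle control wells.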
smiles,measurement,setting,value
CC1(C)CCC(CN2CCN(c3ccc(C(=O)NS(=O)(=O)c4ccc(NCC5CCOCC5)c([N+](=O)[O-])c4)c(Oc4cnc5[nH]ccc5c4)c3)CC2)=C(c2ccc(Cl)cc2)C1 + NC1CC1c1ccc(-c2cccc(O)c2)cc1,IC50,second compound 0.1 µM,4.1 µM
same,IC50,second compound 0.316 µM,3.94 µM
same,IC50,second compound 1 µM,4.04 µM
same,IC50,second compound 3.16 µM,3.82 µM
same,IC50,second compound 10 µM,3.23 µM
same,"viability, T/C",[1],89.8%
same,"viability, T/C",[2],85.4%
same,"viability, T/C",[3],73.2%
same,"viability, T/C",[4],76.5%
same,"viability, T/C","second compound 0.1 µM, first compound 3.16 µM",65.5%
same,"viability, T/C","second compound 0.1 µM, first compound 10 µM",3.69%
same,"viability, T/C",[5],83.2%
same,"viability, T/C",[6],82%
same,"viability, T/C",[7],73.2%
same,"viability, T/C",[8],75.4%
same,"viability, T/C","second compound 0.316 µM, first compound 3.16 µM",61.6%
same,"viability, T/C","second compound 0.316 µM, first compound 10 µM",4.26%
same,"viability, T/C",[9],82.6%
same,"viability, T/C",[10],87%
same,"viability, T/C",[11],81.9%
same,"viability, T/C",[12],65.3%
same,"viability, T/C","second compound 1 µM, first compound 3.16 µM",67.4%
same,"viability, T/C","second compound 1 µM, first compound 10 µM",5.26%
same,"viability, T/C",[13],83.5%
same,"viability, T/C",[14],90.3%
same,"viability, T/C",[15],72.2%
same,"viability, T/C",[16],73.9%
same,"viability, T/C","second compound 3.16 µM, first compound 3.16 µM",61.3%
same,"viability, T/C","second compound 3.16 µM, first compound 10 µM",4.73%
same,"viability, T/C",[17],85.4%
same,"viability, T/C",[18],81.7%
same,"viability, T/C",[19],75.6%
same,"viability, T/C",[20],65.4%
same,"viability, T/C","second compound 10 µM, first compound 3.16 µM",55.2%
same,"viability, T/C","second compound 10 µM, first compound 10 µM",3.86%
CCN(c1cc(-c2ccc(CN3CCOCC3)cc2)cc(C(=O)NCc2c(C)cc(C)[nH]c2=O)c1C)C1CCOCC1 + NC1CC1c1ccc(-c2cccc(O)c2)cc1,IC50,second compound 0.1 µM,0.776 µM
same,IC50,second compound 0.316 µM,0.732 µM
same,IC50,second compound 1 µM,0.633 µM
same,IC50,second compound 3.16 µM,0.466 µM
same,IC50,second compound 10 µM,0.666 µM
same,"viability, T/C",[21],106%
same,"viability, T/C",[22],92.2%
same,"viability, T/C",[23],86.7%
same,"viability, T/C",[24],73.4%
same,"viability, T/C",[25],42.5%
same,"viability, T/C",[26],25.1%
same,"viability, T/C",[27],105%
same,"viability, T/C",[28],95.5%
same,"viability, T/C",[29],78.5%
same,"viability, T/C",[30],69.3%
same,"viability, T/C",[31],42.7%
same,"viability, T/C",[32],27.4%
same,"viability, T/C",[33],94.2%
same,"viability, T/C",[34],84.7%
same,"viability, T/C",[35],84.8%
same,"viability, T/C",[36],66.8%
same,"viability, T/C",[37],40.5%
same,"viability, T/C",[38],30.5%
same,"viability, T/C",[39],98.7%
same,"viability, T/C",[40],102%
same,"viability, T/C",[41],78%
same,"viability, T/C",[42],58.1%
same,"viability, T/C",[43],39.4%
same,"viability, T/C",[44],32.5%
same,"viability, T/C",[45],83.6%
same,"viability, T/C",[46],87.7%
same,"viability, T/C",[47],82.1%
same,"viability, T/C",[48],63.6%
same,"viability, T/C",[49],44.6%
same,"viability, T/C",[50],30.6%
COc1cc(Nc2ncc3c(n2)-c2ccc(Cl)cc2C(c2c(F)cccc2OC)=NC3)ccc1C(=O)O + NC1CC1c1ccc(-c2cccc(O)c2)cc1,IC50,second compound 0.1 µM,0.0422 µM
same,IC50,second compound 0.316 µM,0.0275 µM
same,IC50,second compound 1 µM,0.0505 µM
same,IC50,second compound 3.16 µM,0.44 µM
same,IC50,second compound 10 µM,> 1 µM
same,"viability, T/C",[51],57.3%
same,"viability, T/C",[52],51.5%
same,"viability, T/C",[1],53.3%
same,"viability, T/C",[2],44.6%
same,"viability, T/C",[3],45.7%
same,"viability, T/C",[4],37.3%
same,"viability, T/C",[53],57.6%
same,"viability, T/C",[54],56.5%
same,"viability, T/C",[5],51.2%
same,"viability, T/C",[6],43.1%
same,"viability, T/C",[7],37.4%
same,"viability, T/C",[8],37.8%
same,"viability, T/C",[55],50.5%
same,"viability, T/C",[56],49%
same,"viability, T/C",[9],59.7%
same,"viability, T/C",[10],42.9%
same,"viability, T/C",[11],46.4%
same,"viability, T/C",[12],37.9%
same,"viability, T/C",[57],58.3%
same,"viability, T/C",[58],57.4%
same,"viability, T/C",[13],60.4%
same,"viability, T/C",[14],49.7%
same,"viability, T/C",[15],56%
same,"viability, T/C",[16],42.5%
same,"viability, T/C",[59],73.8%
same,"viability, T/C",[60],60.5%
same,"viability, T/C",[17],59.7%
same,"viability, T/C",[18],55.5%
same,"viability, T/C",[19],52%
same,"viability, T/C",[20],50.2%
Cn1ncnc1C1c2n[nH]c(=O)c3cc(F)cc(c23)NC1c1ccc(F)cc1 (stereo not given) + NC1CC1c1ccc(-c2cccc(O)c2)cc1,IC50,second compound 0.1 µM,> 0.1 µM
same,IC50,second compound 0.316 µM,> 0.1 µM
same,IC50,second compound 1 µM,> 0.1 µM
same,IC50,second compound 3.16 µM,> 0.1 µM
same,IC50,second compound 10 µM,> 0.1 µM
same,"viability, T/C","second compound 0.1 µM, first compound 0.000316 µM",90.1%
same,"viability, T/C","second compound 0.1 µM, first compound 0.001 µM",89.6%
same,"viability, T/C",[51],87.5%
same,"viability, T/C",[52],88.7%
same,"viability, T/C",[1],96.2%
same,"viability, T/C",[2],81.4%
same,"viability, T/C","second compound 0.316 µM, first compound 0.000316 µM",89.6%
same,"viability, T/C","second compound 0.316 µM, first compound 0.001 µM",98.1%
same,"viability, T/C",[53],80.3%
same,"viability, T/C",[54],84.9%
same,"viability, T/C",[5],94.5%
same,"viability, T/C",[6],74.1%
same,"viability, T/C","second compound 1 µM, first compound 0.000316 µM",82.8%
same,"viability, T/C","second compound 1 µM, first compound 0.001 µM",88.5%
same,"viability, T/C",[55],109%
same,"viability, T/C",[56],81.6%
same,"viability, T/C",[9],87%
same,"viability, T/C",[10],81.8%
same,"viability, T/C","second compound 3.16 µM, first compound 0.000316 µM",94.4%
same,"viability, T/C","second compound 3.16 µM, first compound 0.001 µM",90%
same,"viability, T/C",[57],81.5%
same,"viability, T/C",[58],80.5%
same,"viability, T/C",[13],77.7%
same,"viability, T/C",[14],91.6%
same,"viability, T/C","second compound 10 µM, first compound 0.000316 µM",86.8%
same,"viability, T/C","second compound 10 µM, first compound 0.001 µM",83.2%
same,"viability, T/C",[59],86.5%
same,"viability, T/C",[60],87.2%
same,"viability, T/C",[17],75.3%
same,"viability, T/C",[18],88.2%
NS(=O)(=O)OCC1CC(n2ccc3c(NC4CCc5ccccc54)ncnc32)CC1O (stereo not given) + NC1CC1c1ccc(-c2cccc(O)c2)cc1,IC50,second compound 0.1 µM,0.321 µM
same,IC50,second compound 0.316 µM,0.28 µM
same,IC50,second compound 1 µM,0.334 µM
same,IC50,second compound 3.16 µM,0.255 µM
same,IC50,second compound 10 µM,0.134 µM
same,"viability, T/C",[21],104%
same,"viability, T/C",[22],81.6%
same,"viability, T/C",[23],66.4%
same,"viability, T/C",[24],53.8%
same,"viability, T/C",[25],35.4%
same,"viability, T/C",[26],15.2%
same,"viability, T/C",[27],96.3%
same,"viability, T/C",[28],81%
same,"viability, T/C",[29],66.1%
same,"viability, T/C",[30],53.6%
same,"viability, T/C",[31],27%
same,"viability, T/C",[32],18.5%
same,"viability, T/C",[33],92.5%
same,"viability, T/C",[34],81.4%
same,"viability, T/C",[35],77.5%
same,"viability, T/C",[36],51.7%
same,"viability, T/C",[37],29.5%
same,"viability, T/C",[38],20.7%
same,"viability, T/C",[39],98.9%
same,"viability, T/C",[40],75.7%
same,"viability, T/C",[41],68.5%
same,"viability, T/C",[42],45.9%
same,"viability, T/C",[43],32.6%
same,"viability, T/C",[44],17.4%
same,"viability, T/C",[45],87.8%
same,"viability, T/C",[46],74.4%
same,"viability, T/C",[47],56.4%
same,"viability, T/C",[48],35.2%
same,"viability, T/C",[49],20.3%
same,"viability, T/C",[50],8.52%
